Data from patent US12364713B2, “Coagulation mold, a kit and a method for preparing a coagulated blood mass” (Reddress Ltd., priority 2022, dated 2025).
Where “and” joins values, the source holds several entries; their conditions need not be identical. Identical values can stand only once.

System: whole blood
Assay: Calcium Gluconate (CG) Powder Test: coagulation of whole blood with varying CG amounts
Experimental: A standard amount of ACD-A anticoagulant and Kaoiln powder per 1 ml of whole blood was used • 2 ml of ACD-A for 15 ml blood=0.133 ml ACD-A/1 ml blood • 28 mg Kaolin powder for 15 ml blood=1.87 mg Kaolin/1 ml blood
Different amounts of CG where tested-CG particle size after sifting is 125 micron • 20 mg for 15 ml of blood=1.33 mgCG/1 ml blood • 50 mg for 15 ml of blood=3.33 mgCG/1 ml blood • 85 mg for 15 ml of blood=5.66 mgCG/1 ml blood • 110 mg for 15 ml of blood=7.33 mgCG/1 ml blood • 140 mg for 15 ml of blood=9.33 mgCG/1 ml blood
Coagulation time and clot structure strength were documented. Blood samples of 5 different volunteers were used.

[1] = 20 mg CG for 15 ml blood, Average of 5 volunteers
[2] = 50 mg CG for 15 ml blood, Average of 5 volunteers
[3] = 85 mg CG for 15 ml blood, Average of 5 volunteers
[4] = 110 mg CG for 15 ml blood, Average of 5 volunteers
[5] = 140 mg CG for 15 ml blood, Average of 5 volunteers

Substance: Calcium Gluconate [CG]
- Coagulation time (20 mg CG for 15 ml blood, 2 ml ACD-A, 28 mg Kaolin, individual volunteers #1-#5, good time is under 6 minutes): 17 and 14 and 12 and 14.5 and 15
- Clot strength [1]: Low
- Coagulation time [1]: 14.5
- Clot strength (20 mg CG for 15 ml blood, individual volunteers, visual): Low
- Coagulation time (50 mg CG for 15 ml blood, 2 ml ACD-A, 28 mg Kaolin, individual volunteers #1-#5, good time is under 6 minutes): 6.7 and 5.4 and 6 and 6.6 and 6.8
- Clot strength [2]: Medium
- Coagulation time [2]: 6.3
- Clot strength (50 mg CG for 15 ml blood, individual volunteers, visual): Medium
- Coagulation time (85 mg CG for 15 ml blood, 2 ml ACD-A, 28 mg Kaolin, individual volunteers #1-#5, good time is under 6 minutes): 4.8 (2×) and 4.6 (2×) and 4.7
- Clot strength [3]: Strong
- Coagulation time [3]: 4.88
- Clot strength (85 mg CG for 15 ml blood, individual volunteers, visual): Strong
- Coagulation time (110 mg CG for 15 ml blood, 2 ml ACD-A, 28 mg Kaolin, individual volunteers #1-#5, good time is under 6 minutes): 4.7 and 5.2 and 4.6 and 4.9 and 5
- Clot strength [4]: Strong
- Coagulation time [4]: 4.7
- Clot strength (110 mg CG for 15 ml blood, individual volunteers, visual): Strong
- Coagulation time (140 mg CG for 15 ml blood, 2 ml ACD-A, 28 mg Kaolin, individual volunteers #1-#5, good time is under 6 minutes): 4.8 and 4.7 and 5 and 5.2 and 4.9
- Clot strength [5]: Strong
- Coagulation time [5]: 4.92
- Clot strength (140 mg CG for 15 ml blood, individual volunteers, visual): Strong
